Source: US9205069B2, “Inhibitors of anaphase promoting complex activity” (President and Fellows of Harvard College, priority 2009, dated 2015)

Experiments:
[1] = test system: proteasomal degradation of ubiquitinated cyclin B1; assay: degradation of pre-ubiquitinated 35S-cyclin B1 in interphase extract; assay type: biochemical, Xenopus; details: TAME 200 μM
Method: At indicated time points, all protein was precipitated and the level of radioactivity in supernatant was measured by scintillation counting. MG262 was used as a positive control.
A purified MPF complex containing 35S-labeled cyclin B1 was ubiquitinated by APC in a reconstituted ubiquitination system, and then added to interphase Xenopus extract in the presence or absence of inhibitors.

[2] = test system: interaction between APC and IR peptide; assay: APC recruitment from interphase extract by IR peptide resin; assay type: binding, Xenopus; details: 200 μM
Method: Top panel: Iodoacetyl resin was coupled with cysteine, a 21aa C-terminal peptide of Cdh1 or a 19aa peptide missing the C-terminal IR tail. The resin was incubated with interphase extract and the amount of Cdc27 bound on resin was analyzed.

[3] = test system: cyclin B1 degradation and Cdc27 phosphorylation; assay: mitotic arrest in Xenopus extract after MPF addition (Western blot); assay type: biochemical; details: 200 μM, interphase extract plus MPF
human APC = target: T1, human APC (Homo sapiens, UniProt P30260+Q13042+Q9UJX2+Q9UJX3); assay: 3H-TAME binding to APC in asynchronous HeLa cell lysate
T1 construct: endogenous in cells; host or cells: asynchronous HeLa cells (lysate)
Source text: The same experiment was done as described in 3C using asynchronous Hela cell lysate.

APC-Cdh1 = assay: in vitro ubiquitination assay with interphase APC activated by recombinant Cdh1; assay type: biochemical, Xenopus; details: 200 μM, added into ubiquitination reaction
Source text: APC was then immunoprecipitated and tested in an in vitro ubiquitination assay.

APC-Cdc20 = assay: in vitro ubiquitination assay with APC immunopurified from mitotic extract; assay type: biochemical, Xenopus; details: 200 μM, added into ubiquitination reaction
Source text: APC was immunoprecipitated from mitotic extract and tested in an in vitro ubiquitination assay.

[4] = test system: APC-dependent proteolysis; assay: cyclin B-luciferase degradation in mitotic Xenopus egg extract (luciferase assay); details: derivatives tested at 200 μM
Method: Samples were collected at 60 minutes and the remaining reporter level was measured by luminescence. Interphase extract was used as a negative control.

Xenopus APC = assay: 3H-TAME binding to APC in interphase extract (Cdc27 immunoprecipitation, scintillation counting); details: 200 nM 3H TAME
Method: Interphase extract was subjected to three rounds of immunoprecipitation with Cdc27 antibody. […] The specific counts associated with the beads were determined by scintillation counting.
(§1) The specific counts associated with the beads were determined by scintillation counting.
as §1
In parallel, the amount of immunoprecipitated Cdc27 was determined by immunoblot.

Row | competition with specific 3H-TAME binding to human APC (human APC) | APC ligase activity, compound added directly to reconstituted ubiquitination assay (APC-Cdc20) | activity of TAME derivatives in luciferase assay [4] | competition with specific binding of 3H-TAME to Xenopus APC (Xenopus APC) | Compound | degradation of pre-ubiquitinated cyclin B1 [1] | APC recruitment by IR peptide resin [2] | cyclin B1 and Cdc27 phosphorylation after MPF addition [3] | APC-Cdh1 activity, compound added directly to reconstituted assay (APC-Cdh1)
1 |  |  |  |  | CC(C)C[C@H](NC(=O)[C@H](CC(C)C)NC(=O)[C@H](CC(C)C)NC(=O)OCc1ccccc1)B(O)O [MG262] | strongly inhibited |  |  | 
2 | did not | did not inhibit APC | lowest activity | did not | COC(=O)[C@H](CCCNC(=N)N)NC(C)=O [AAME, acetyl-L-arginine methylester] |  | no effect | degraded by 30 min | did not inhibit APC
